In one assay the test system is 282377-053-R-J1-PDC complex spheroids, viability. Kind of assay: Anticancer human tumor 282377-053-R-J1-PDC patient-derived colon adenocarcinoma cell line growth inhibition [GQUAD]. The conditions noted are these: second compound 3.16 µM; first compound 0.1 µM; active compounds read low. The essentials:
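Multi-cell-type spheroids of tumor cells with HUVEC and mesenchymal stem cells, treated with drug combinations. Concentrations descend in half-log steps from near clinical Cmax, or from 10 microM where Cmax is unknown; viability read-out.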
Broadly, the viability, T/C is the result in the treated group divided by that in the control group, in per cent. Regarding `CC1COCCN1c1cc(-c2ccnn2C)c2ccnc(-c3ccn[nH]3)c2n1` (stereo unspecified) + Cc1cnc(CNC(=O)c2c(=O)c3ccc(N4CCCN(C)CC4)nc3n3c2sc2ccccc23)cn1, the viability, T/C was 32.8%.

`CC1COCCN1c1cc(C2(S(C)(=N)=O)CC2)nc(-c2ccnc3[nH]ccc23)n1` (stereo unspecified) + Cc1cnc(CNC(=O)c2c(=O)c3ccc(N4CCCN(C)CC4)nc3n3c2sc2ccccc23)cn1: the viability, T/C is 56.1%.

Turning to `COc1ccc([C@@H](O)c2cc(-c3ncnc4cc(N5CCOCC5)ccc34)c(F)cc2Cl)nn1` + Cc1cnc(CNC(=O)c2c(=O)c3ccc(N4CCCN(C)CC4)nc3n3c2sc2ccccc23)cn1, the viability, T/C was 48.2%.

Still in this assay, the particulars now being: second compound 3.16 µM; first compound 0.316 µM; active compounds read low.
As for `C=CCn1c(=O)c2cnc(Nc3ccc(N4CCN(C)CC4)cc3)nc2n1-c1cccc(C(C)(C)O)n1` + Cc1[nH]c2ccc(F)cc2c1-c1nc2c3cccnc3c3ncccc3c2[nH]1, the viability, T/C was 24%.

For `COc1ncnc(C2CC2)c1-c1ncc2cnn(Cc3ccc(-c4nc(C(F)(F)F)cn4C(C)C)cc3)c2n1` + Cc1[nH]c2ccc(F)cc2c1-c1nc2c3cccnc3c3ncccc3c2[nH]1, the viability, T/C is 93.2%.

Regarding `CC1COCCN1c1cc(-c2ccnn2C)c2ccnc(-c3ccn[nH]3)c2n1` (stereo unspecified) + Cc1cnc(CNC(=O)c2c(=O)c3ccc(N4CCCN(C)CC4)nc3n3c2sc2ccccc23)cn1, the viability, T/C was 25.4%.

For the compound `CC1COCCN1c1cc(C2(S(C)(=N)=O)CC2)nc(-c2ccnc3[nH]ccc23)n1` (stereo unspecified) + Cc1cnc(CNC(=O)c2c(=O)c3ccc(N4CCCN(C)CC4)nc3n3c2sc2ccccc23)cn1, the viability, T/C was 68.5%.

Turning to `COc1ccc([C@@H](O)c2cc(-c3ncnc4cc(N5CCOCC5)ccc34)c(F)cc2Cl)nn1` + Cc1cnc(CNC(=O)c2c(=O)c3ccc(N4CCCN(C)CC4)nc3n3c2sc2ccccc23)cn1, the viability, T/C was 43.3%.

Staying with this assay, now noted: second compound 3.16 µM; first compound 1 µM; active compounds read low.
`C=CCn1c(=O)c2cnc(Nc3ccc(N4CCN(C)CC4)cc3)nc2n1-c1cccc(C(C)(C)O)n1` + Cc1[nH]c2ccc(F)cc2c1-c1nc2c3cccnc3c3ncccc3c2[nH]1: the viability, T/C was 16.9%.

For `COc1ncnc(C2CC2)c1-c1ncc2cnn(Cc3ccc(-c4nc(C(F)(F)F)cn4C(C)C)cc3)c2n1` + Cc1[nH]c2ccc(F)cc2c1-c1nc2c3cccnc3c3ncccc3c2[nH]1, the viability, T/C is 82.6%.

Take `CC1COCCN1c1cc(-c2ccnn2C)c2ccnc(-c3ccn[nH]3)c2n1` (stereo unspecified) + Cc1cnc(CNC(=O)c2c(=O)c3ccc(N4CCCN(C)CC4)nc3n3c2sc2ccccc23)cn1: the viability, T/C is 22.8%.

Regarding `CC1COCCN1c1cc(C2(S(C)(=N)=O)CC2)nc(-c2ccnc3[nH]ccc23)n1` (stereo unspecified) + Cc1cnc(CNC(=O)c2c(=O)c3ccc(N4CCCN(C)CC4)nc3n3c2sc2ccccc23)cn1, the viability, T/C is 50.1%.

Turning to `COc1ccc([C@@H](O)c2cc(-c3ncnc4cc(N5CCOCC5)ccc34)c(F)cc2Cl)nn1` + Cc1cnc(CNC(=O)c2c(=O)c3ccc(N4CCCN(C)CC4)nc3n3c2sc2ccccc23)cn1, the viability, T/C was 42.9%.

The same assay, now with this note: second compound 3.16 µM; first compound 3.16 µM; active compounds read low.
For `C=CCn1c(=O)c2cnc(Nc3ccc(N4CCN(C)CC4)cc3)nc2n1-c1cccc(C(C)(C)O)n1` + Cc1[nH]c2ccc(F)cc2c1-c1nc2c3cccnc3c3ncccc3c2[nH]1, the viability, T/C is 12.7%.

As to `COc1ncnc(C2CC2)c1-c1ncc2cnn(Cc3ccc(-c4nc(C(F)(F)F)cn4C(C)C)cc3)c2n1` + Cc1[nH]c2ccc(F)cc2c1-c1nc2c3cccnc3c3ncccc3c2[nH]1, the viability, T/C is 63.2%.

Regarding `CC1COCCN1c1cc(-c2ccnn2C)c2ccnc(-c3ccn[nH]3)c2n1` (stereo unspecified) + Cc1cnc(CNC(=O)c2c(=O)c3ccc(N4CCCN(C)CC4)nc3n3c2sc2ccccc23)cn1, the viability, T/C was 21.1%.

On to `CC1COCCN1c1cc(C2(S(C)(=N)=O)CC2)nc(-c2ccnc3[nH]ccc23)n1` (stereo unspecified) + Cc1cnc(CNC(=O)c2c(=O)c3ccc(N4CCCN(C)CC4)nc3n3c2sc2ccccc23)cn1, for which the viability, T/C is 52.2%.

With `COc1ccc([C@@H](O)c2cc(-c3ncnc4cc(N5CCOCC5)ccc34)c(F)cc2Cl)nn1` + Cc1cnc(CNC(=O)c2c(=O)c3ccc(N4CCCN(C)CC4)nc3n3c2sc2ccccc23)cn1, the viability, T/C was 41.5%.

The assay is the same for the next values; noted with them: second compound 3.16 µM; first compound 10 µM; active compounds read low.
Take `C=CCn1c(=O)c2cnc(Nc3ccc(N4CCN(C)CC4)cc3)nc2n1-c1cccc(C(C)(C)O)n1` + Cc1[nH]c2ccc(F)cc2c1-c1nc2c3cccnc3c3ncccc3c2[nH]1: the viability, T/C was 2.18%.

In the case of `COc1ncnc(C2CC2)c1-c1ncc2cnn(Cc3ccc(-c4nc(C(F)(F)F)cn4C(C)C)cc3)c2n1` + Cc1[nH]c2ccc(F)cc2c1-c1nc2c3cccnc3c3ncccc3c2[nH]1, the viability, T/C is 6.71%.

In the case of `CC1COCCN1c1cc(-c2ccnn2C)c2ccnc(-c3ccn[nH]3)c2n1` (stereo unspecified) + Cc1cnc(CNC(=O)c2c(=O)c3ccc(N4CCCN(C)CC4)nc3n3c2sc2ccccc23)cn1, the viability, T/C was 15.8%.

Take `CC1COCCN1c1cc(C2(S(C)(=N)=O)CC2)nc(-c2ccnc3[nH]ccc23)n1` (stereo unspecified) + Cc1cnc(CNC(=O)c2c(=O)c3ccc(N4CCCN(C)CC4)nc3n3c2sc2ccccc23)cn1: the viability, T/C was 34.6%.

Turning to `COc1ccc([C@@H](O)c2cc(-c3ncnc4cc(N5CCOCC5)ccc34)c(F)cc2Cl)nn1` + Cc1cnc(CNC(=O)c2c(=O)c3ccc(N4CCCN(C)CC4)nc3n3c2sc2ccccc23)cn1, the viability, T/C was 39.2%.

The same assay, now with this note: second compound 10 µM; first compound 0.0316 µM; active compounds read low.
As to `C=CCn1c(=O)c2cnc(Nc3ccc(N4CCN(C)CC4)cc3)nc2n1-c1cccc(C(C)(C)O)n1` + Cc1[nH]c2ccc(F)cc2c1-c1nc2c3cccnc3c3ncccc3c2[nH]1, the viability, T/C was 20.7%.

With `COc1ncnc(C2CC2)c1-c1ncc2cnn(Cc3ccc(-c4nc(C(F)(F)F)cn4C(C)C)cc3)c2n1` + Cc1[nH]c2ccc(F)cc2c1-c1nc2c3cccnc3c3ncccc3c2[nH]1, the viability, T/C was 48.1%.

On to `CC1COCCN1c1cc(-c2ccnn2C)c2ccnc(-c3ccn[nH]3)c2n1` (stereo unspecified) + Cc1cnc(CNC(=O)c2c(=O)c3ccc(N4CCCN(C)CC4)nc3n3c2sc2ccccc23)cn1, for which the viability, T/C is 26.9%.

(Values after PubChem BioAssay AID2060501 (Molecular Pharmacology Branch, DTP, NCI, 2025).)
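Note: spheroids exposed to compounds for 7 days before readout; percent of vehicle DMSO control viability with 100% = untreated-like growth.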
